# In patent EP1270000A2, “Benzoic acid substituted benzopyrans for the treatment of atherosclerosis” (Pfizer Products Inc., priority 2001, dated 2003):
# Legend:
# 129E^-/- = assay: Lesion analysis (Oil red O, aortic sinus and valve) in atherosclerotic mice; format: in vivo; set-up: Lesion size: unit not given here; details: chow diet; for Sinus (% lesion) / Valve (%lesion): 129E^-/-, F, mean ±SD
# Excerpt: (§1) Mouse line derivation. Genetically modified apolipoprotein E-deficient (ApoE^-/-), low density lipoprotein (LDL) receptor-deficient (LDLr^-/-), and monocyte chemoattractant protein-1-deficient (MCP-1^-/-) mice used in the present study have been previously described and characterized [See Rutledge, B.J. et. al., J. Immunol., 1995;155:4838-4843; and Nakashima Y, et. al., Arterioscler. Thromb., 1994;14(1):133-140]. To obtain mice homozygous for both the apoE and MCP-1 (ScyA2) null alleles, male ApoE^-/- mice on a C57B/6 background (C57E^- ^/-) were mated with heterozygous female MCP-1^-/+ mice on a C57B/6 background. The resulting ApoE^-/- x MCP-1^-/+ progeny were identified by Southern blot analysis and inbred to produce ApoE^-/- x MCP-1^-/- (C57E^-/- x MCP-1 ^-/-) and control ApoE ^-/- x MCP-1^+/+ (C57E-/-) mice. ApoE^-/- mice on the mixed genetic background 1290la x C57B/6 (129E^-/-) were bred in-house and derived from brother and sister matings. All mice were weaned at 21 days, maintained on a 12 hour light/dark cycle and fed either a chow or a Western-type diet [See, Bourassa, P.K., et. al., Proc Natl Acad. Sci. USA, 1996;93:10022-10027].
# (§2) Administration of Compound. Compound of formula I, preferably (3S, 4R)-7-(2-carboxy-5-trifluoromethylphenyl)-4-hydroxy-3-benzyl-3,4-dihydro-2H-1-benzopyran, was evaluated for its effects on lesion development in age-matched groups of mice (15 to 30 weeks of age at time of sacrifice) using a 35 day treatment protocol. Subgroups of mice were treated with (3S, 4R)-7-(2-carboxy-5-trifluoromethylphenyl)-4-hydroxy-3-benzyl-3,4-dihydro-2H-1-benzopyran for shorter times (7-14 days) for evaluation of acute changes in tissue gene expression as noted in the table and figure legends. In all study groups, the compound was administered by oral gavage once daily in a vehicle comprised of 0.6% Tween 80 + 0.25% methylcellulose in PBS. […]
# (§3) Lesion Analysis. To determine cross-sectional lesion area, hearts were perfusion-fixed in 4% paraformaldehyde, infiltrated with 30% gum sucrose for 24 hours at 4°C, and embedded in OCT compound and sectioned 10µm, -18°C, as previously described [See Borgeat P., et.al., J. Biol. Chem., 1979;254:2643-2646] and the sections were stained with Oil red O (Polyscientific, Bay Shore NY) and counterstained with Gill III hematoxylin (Sigma, St. Louis MO). Each section of the aortic valve was evaluated for Oil red O staining area by capturing images directly from a RGB camera attached to a Leitz Laborlux S (Leica) light microscope for display on a Trinitron RGB monitor. Image analysis was performed using ImagePro 3.1' software as described previously [See Bourassa, P.K., et. al., Proc Natl. Acad. Sci. USA, 1996;93:10022-10027]. Results are expressed as the average lesion size per section or as the percent of the total cross sectional vessel wall stained with Oil red O. For each animal, the average lesion area of 12-16 sections was determined and data are expressed as lesion size or mean percent lesion area ±S.D.
# Referring to Table 2, Apolipoprotein E-deficient mice on a mixed 129Io/B6 (129E^-/-) or a C57BI/6 background (C57E^-/-), mice homozygous low density lipoprotein receptor deficient mice LDLR^-/- mice were treated for 35 days orally with (3S, 4R)-7-(2-carboxy-5-trifluoromethylphenyl)-4-hydroxy-3-benzyl-2H-1-benzopyran) at doses indicated. LDLR^-/- was fed a Western diet; all other strains were maintained on chow diet. The mean percent lesion area in 10 µ sections of the aortic sinus and valve region was calculated following oil red O staining, Values are reported as means ±SD. The term "ND" is defined as Not Determined. The term "TPC" is defined as Total Plasma Cholesterol. The term "TG" is defined as Triglycerides. The term "sinus" is defined as a region of the aortic válve; moving up from the base of the heart; which begins at the first appearance of the aortic valve cusps, dividing the lumen into three distinct regions. In the sinus, the aortic wall is bulging and irregular. […]
# C57E^-/- = assay: as above; format: in vivo; details: 100 mg/kg orally 35 days, chow diet, mean ±SD
# Excerpt: as §1
# Administration of Compound. Compound of formula I, preferably (3S, 4R)-7-(2-carboxy-5-trifluoromethylphenyl)-4-hydroxy-3-benzyl-3,4-dihydro-2H-1-benzopyran, was evaluated for its effects on lesion development in age-matched groups of mice (15 to 30 weeks of age at time of sacrifice) using a 35 day treatment protocol. Subgroups of mice were treated with (3S, 4R)-7-(2-carboxy-5-trifluoromethylphenyl)-4-hydroxy-3-benzyl-3,4-dihydro-2H-1-benzopyran for shorter times (7-14 days) for evaluation of acute changes in tissue gene expression as noted in the table and figure legends. […]
# Lesion Analysis. […] Each section of the aortic valve was evaluated for Oil red O staining area by capturing images directly from a RGB camera attached to a Leitz Laborlux S (Leica) light microscope for display on a Trinitron RGB monitor. […] Results are expressed as the average lesion size per section or as the percent of the total cross sectional vessel wall stained with Oil red O. For each animal, the average lesion area of 12-16 sections was determined and data are expressed as lesion size or mean percent lesion area ±S.D.
# Referring to Table 2, Apolipoprotein E-deficient mice on a mixed 129Io/B6 (129E^-/-) or a C57BI/6 background (C57E^-/-), mice homozygous low density lipoprotein receptor deficient mice LDLR^-/- mice were treated for 35 days orally with (3S, 4R)-7-(2-carboxy-5-trifluoromethylphenyl)-4-hydroxy-3-benzyl-2H-1-benzopyran) at doses indicated. […] The mean percent lesion area in 10 µ sections of the aortic sinus and valve region was calculated following oil red O staining, Values are reported as means ±SD. The term "ND" is defined as Not Determined. […]
# LDLr^-/- = assay: as above; format: in vivo; set-up: Lesion size: unit not given here
# Excerpt: as §1
# Administration of Compound. Compound of formula I, preferably (3S, 4R)-7-(2-carboxy-5-trifluoromethylphenyl)-4-hydroxy-3-benzyl-3,4-dihydro-2H-1-benzopyran, was evaluated for its effects on lesion development in age-matched groups of mice (15 to 30 weeks of age at time of sacrifice) using a 35 day treatment protocol. […]
# Lesion Analysis. […] Each section of the aortic valve was evaluated for Oil red O staining area by capturing images directly from a RGB camera attached to a Leitz Laborlux S (Leica) light microscope for display on a Trinitron RGB monitor. […] Results are expressed as the average lesion size per section or as the percent of the total cross sectional vessel wall stained with Oil red O. For each animal, the average lesion area of 12-16 sections was determined and data are expressed as lesion size or mean percent lesion area ±S.D. […]
# MCP-1 ^-/- X ApoE^-/- = assay: Lesion analysis (Oil red O, aortic sinus and valve) in MCP-1 deficient mice; format: in vivo; details: M, mean ±SD
# Excerpt: as §1
# (§4) Administration of Compound. Compound of formula I, preferably (3S, 4R)-7-(2-carboxy-5-trifluoromethylphenyl)-4-hydroxy-3-benzyl-3,4-dihydro-2H-1-benzopyran, was evaluated for its effects on lesion development in age-matched groups of mice (15 to 30 weeks of age at time of sacrifice) using a 35 day treatment protocol. Subgroups of mice were treated with (3S, 4R)-7-(2-carboxy-5-trifluoromethylphenyl)-4-hydroxy-3-benzyl-3,4-dihydro-2H-1-benzopyran for shorter times (7-14 days) for evaluation of acute changes in tissue gene expression as noted in the table and figure legends. In all study groups, the compound was administered by oral gavage once daily in a vehicle comprised of 0.6% Tween 80 + 0.25% methylcellulose in PBS. Mice received either vehicle alone, 30mg/kg/day, or 100mg/kg/day of compound of formula I.
# as §3
# Referring to Table 4, mice homozygous for the null alleles of Monocyte chemoattractant protein-1 (MCP-1^-/-) and apolipoprotein E (ApoE^-/-) (MCP-1 ^-/- X ApoE^-/-) on a C57bl/6 background (C57E^-/-) mice were treated for 35 days orally with (3S, 4R)-7-(2-carboxy-5-trifluoromethylphenyl)-4-hydroxy-3-benzyl-2H-1-benzopyran) at doses indicated 0, 30 or 100mg/kg. The mean percent lesion area in 10 µ sections of the aortic sinus and valve region was calculated following oil red O staining, Values are reported as means ±SD. The term "ND" is defined as Not Determined. The term "TPC" is defined as Total Plasma Cholesterol. The term "TG" is defined as Triglycerides. The term "sinus" is defined as a region of the aortic valve; moving up from the base of the heart; which begins at the first appearance of the aortic valve cusps, dividing the lumen into three distinct regions. […]
# [1] = Body weight of treated mice; format: in vivo
# Method: as §2
# CD11b = assay: Immunohistochemical staining of macrophages (CD11b) in atherosclerotic lesions; format: in vivo, mice; details: 30 mg/kg/d orally for 35 days, mean ± SD, N=8/group
# Method: as §4
# Immunohistochemical Staining of Macrophages. Serial paraformaldehyde fixed, OCT embedded sections of aortic valves were immunostained for macrophages using rat monoclonal antibodies (IgG2b) against MOMA-2 (BioSource) and CD11b (Pharmingen). Endogenous biotin and peroxidase activity were blocked by incubating each section with an avidin/biotin solution (Vector Laboratories), and 0.3% H2O2 in 1% bovine serum, respectively. […] Results are expressed as the percent of the total cross-sectional vessel wall area (normal + diseased area/ section, excluding the lumen) stained with DAB. […]
# [2] = 15 wks, 30 mg/kg orally 35 days
# [3] = 15 wks, 50 mg/kg orally 35 days
# [4] = 15 wks, 100 mg/kg orally 35 days
# [5] = 20 wks, 30 mg/kg orally 35 days
# [6] = 24 wks, 100 mg/kg orally 35 days
# [7] = LDLr^-/-, M, 18 wks, 30 mg/kg orally 35 days, Western diet, mean ±SD
# [8] = 30 wks, 30 mg/kg orally 35 days
# [9] = 30 wks, 100 mg/kg orally 35 days
compound,measurement,setting,value
"O=C(O)c1ccc(C(F)(F)F)cc1-c1ccc2c(c1)OC[C@H](Cc1ccccc1)[C@H]2O [(3S, 4R)-7-(2-carboxy-5-trifluoromethylphenyl)-4-hydroxy-3-benzyl-3,4-dihydro-2H-1-benzopyran]",Sinus (% lesion),129E^-/-; [2],19.6±2%
same,Valve (%lesion),129E^-/-; [2],21.6±2%
same,Sinus (% lesion),129E^-/-; [3],14.7±2 %
same,Valve (%lesion),129E^-/-; [3],16.3±2 %
same,Sinus (% lesion),129E^-/-; [4],7.9±1 %
same,Valve (%lesion),129E^-/-; [4],8.0±2 %
same,Sinus (% lesion),129E^-/-; [5],24.4±3%
same,Valve (%lesion),129E^-/-; [5],25.9±3 %
same,Sinus (% lesion),129E^-/-; [6],30.0±1%
same,Valve (%lesion),129E^-/-; [6],34.0±1%
same,Lesion size,"129E^-/-; female 129E^-/-, 30 mg/kg/d orally for 35 days, mean ± SD, N=8/group",10650±12133
same,Sinus (% lesion),"C57E^-/-; F, 22 wks",38.8±3%
same,Valve (%lesion),"C57E^-/-; F, 22 wks",39±2%
same,Sinus (% lesion),"C57E^-/-; M, 16 wks",10.4±3 %
same,Valve (%lesion),"C57E^-/-; M, 16 wks",7.8±2 %
same,Sinus (% lesion),LDLr^-/-; [7],5.6±2 %
same,Valve (%lesion),LDLr^-/-; [7],6.5±3 %
same,Lesion size,"LDLr^-/-; male LDLr^-/-, Western-type diet, 30 mg/kg/d orally for 35 days, mean ± SD, N=8/group",19955±7278
same,Sinus (% lesion),MCP-1 ^-/- X ApoE^-/-; [2],13.3±2%
same,Valve (%lesion),MCP-1 ^-/- X ApoE^-/-; [2],12.8±2%
same,Sinus (% lesion),MCP-1 ^-/- X ApoE^-/-; [4],9.8±1%
same,Valve (%lesion),MCP-1 ^-/- X ApoE^-/-; [4],9.7±1%
same,Sinus (% lesion),MCP-1 ^-/- X ApoE^-/-; [8],41.4±5%
same,Valve (%lesion),MCP-1 ^-/- X ApoE^-/-; [8],54.2±7%
same,Sinus (% lesion),MCP-1 ^-/- X ApoE^-/-; [9],43.1±5%
same,Valve (%lesion),MCP-1 ^-/- X ApoE^-/-; [9],50.0±4%
same,Body wt(gm),"[1]; 129E^-/-, F, 15 wks, 30 mg/kg orally 35 days, chow diet",26±2 gm
same,Body wt(gm),"[1]; 129E^-/-, F, 15 wks, 50 mg/kg orally 35 days, chow diet",25±2 gm
same,Body wt(gm),"[1]; 129E^-/-, F, 15 wks, 100 mg/kg orally 35 days, chow diet",25±1 gm
same,Body wt(gm),"[1]; 129E^-/-, F, 20 wks, 30 mg/kg orally 35 days, chow diet",29±1 gm
same,Body wt(gm),"[1]; 129E^-/-, F, 24 wks, 100 mg/kg orally 35 days, chow diet",31±1 gm
same,Body wt(gm),"[1]; C57E^-/-, F, 22 wks, 100 mg/kg orally 35 days, chow diet",30 gm
same,Body wt(gm),"[1]; C57E^-/-, M, 16 wks, 100 mg/kg orally 35 days, chow diet",29±1 gm
same,Body wt(gm),"[1]; LDLr^-/-, M, 18 wks, 30 mg/kg orally 35 days, Western diet",31±2 gm
same,Body wt(gm),"[1]; MCP-1 ^-/- X ApoE^-/-, M, 15 wks, 30 mg/kg orally 35 days",29±1 gm
same,Body wt(gm),"[1]; MCP-1 ^-/- X ApoE^-/-, M, 15 wks, 100 mg/kg orally 35 days",29±1 gm
same,Body wt(gm),"[1]; MCP-1 ^-/- X ApoE^-/-, M, 30 wks, 30 mg/kg orally 35 days",31±1 gm
same,Body wt(gm),"[1]; MCP-1 ^-/- X ApoE^-/-, M, 30 wks, 100 mg/kg orally 35 days",26±1 gm
same,% CD11b (mean percent of the lesion staining positively for CD11b),"CD11b; female 129E^-/-, chow diet",3.5±1.0 %
same,% CD11b (mean percent of the lesion staining positively for CD11b),"CD11b; male LDLr^-/-, Western-type diet",3.5±2.5 %
